The source of these data is patent US6927211B2, “Method for reducing toxicity of combined chemotherapies” (Bristol-Myers Squibb Company, priority 2000, dated 2005).

Assay type in all cases: biochemical
The subject of series [1] is human cardiac microsomes. The experiment in a line: NADPH oxidation by deoxycholate-solubilized human heart microsomes incubated with DOX, plus or minus taxanes. The following applies: 10 μM DOX, 1-10 μM taxane; FIG. 5. The method, then:
(§1) 105,000 g pellets from human myocardium homogenates are solubilized with deoxycolate and reconstituted at the final concentration of 0.025 mg prot/ml with 10 μM DOX, 1-10 μM taxane, 0.1 mM NADPH, in 0.3 M NaCl, pH 7.0, 37° C.
(§2) Electron flow from NADPH cytochrome P-450 reductase to the quinone moiety of DOX is detected by monitoring NADPH oxidation. Redox coupling of the semiquinone with oxygen is detected by monitoring formation of the superoxide anion radical with the superoxide dismutase-inhibitable reduction of cytochrome c (25 μM). These assays are performed in a Hewlett Packard 8453A UV/VIS/NIR spectrometer equipped with computer-assisted corrections for scatter and turbidity.

For series [2], the system named is human cardiac microsomes. Put plainly: Superoxide anion formation (SOD-inhibitable cytochrome c reduction) by deoxycholate-solubilized human heart microsomes with DOX, plus or minus taxanes. The following applies: for increase of DOX-dependent superoxide anion formation (in words): 10 μM taxane with DOX. The protocol:
as §1, §2

For series [3], the system named is human cardiac cytosol. The experiment in a line: Conversion of DOX aglycone into DOXol aglycone, plus or minus taxanes, in human cardiac cytosol. The following applies: for stimulation of conversion of DOX aglycone into DOXol aglycone (in words): human cardiac cytosol, FIG. 4; for doxorubicinolone formation from doxorubicinone: taxane 1 μM, without taxane 0.8±0.1, n=3, P<0.05. The method, then:
(§3) Human myocardium is obtained from patients undergoing aorto-coronary bypass grafting. All samples were routinely disposed of by the surgeons from the lateral aspect of excluded right atrium during cannulation procedures for cardio-pulmonary by-pass. After storage at −80° C., pools of 15-20 samples are processed for cytosol preparation by sequential homogenization, ultracentrifugation and overnight 65% ammonium sulfate precipitation of 105,000 g supernatants. Next, cytosol is dialyzed against 100 mM Tris HCl-40 mM KCl, pH 8.9, diluted to 3 mg protein/ml with the same buffer, and incubated for 15 minutes at room temperature with 100 mM dithiothreitol to promote non-denaturing disassembly of the [4Fe-4S] cluster of cytoplasmic aconitase. This treatment is necessary as reactions of DOXol with [4Fe-4S] clusters would convert this metabolite back to DOX. Sizable amounts of DOXol would therefore go undetected if they reacted with [4Fe-4S] clusters prior to their assay. Unreacted dithiothreitol was eventually removed by sequential gel filtration on (1.5×10 cm) Sepharose 6B columns, protein reprecipitation with 65% ammonium sulfate, and extensive dialysis against 0.3 M NaCl, pH 7.0. Doxorubicin metabolism was reconstituted in 0.5 ml incubations containing cytosol (0.15 mg protein), NADPH (100 μM) and DOX (25 μM), in 0.3 M NaCl (pH 7.0) 37° C. Where indicated ethanol-dissolved taxanes (1-50 μM) were included. Aliquots of taxane-free ethanol (5 μl) were included as appropriate to adjust the final volume to 10 μl in all incubations. After 4 h DOX and DOXol were extracted with 2 ml of CHCl3/CH3OH (1:1) and separated by previously validated two-dimensional TLC on (20×20 cm) […] F524 Silica Gel Plates, using CHCl3/CH3OH/CH3COOH/H2O (80:20:14:6) as mobile phase in either dimension. Doxorubicinol was identified by cochromatography with (S)-DOXol from Streptomyces peucetius or (S) (R)-DOXol purified after NaBH4 reduction of DOX. Where indicated incubations were prepared by replacing DOX with DOX aglycone and by measuring formation of DOXol aglycone. The latter was separated from DOX aglycone by using CHCl3/CH3OH/CH3COOH (100:2:5) and CH3COOC2H5—CH3CH2OH—CH3COOH—H2O (80:10:5:5) in the first and second dimension, respectively. DOX aglycone was purified after thermoacid hydrolysis of DOX.

Series [4] deals with human cardiac cytosol. Put plainly: Reconstitution of DOX metabolism and DOXol formation, plus or minus taxanes, in human cardiac cytosol. The conditions noted are these: for stimulation of DOXol formation (in words): [4Fe-4S]-depleted cytosol, DOX 25 μM, taxanes 1-50 μM, 4 h, FIG. 3; for doxorubicinol formation from DOX: taxane 1 μM, DOX without taxane 0.46±0.04, n=3, P<0.05. The protocol: as §3

Structures are written as SMILES. “Also recorded” adds a separate entry of the source.

As to `COC(=O)O[C@@]12CO[C@@H]1C[C@H](O)[C@@]1(C)C(=O)[C@H](OC(C)=O)C3=C(C)[C@@H](OC(=O)[C@H](O)[C@@H](NC(=O)c4ccccc4)c4ccccc4)C[C@@](O)([C@@H](OC(=O)c4ccccc4)[C@H]21)C3(C)C` [4-desacetyl-4-methylcarbonate taxol], the “stimulation of NADPH oxidation in the presence of DOX (in words)” value (“stimulation of NADPH oxidation” below) with human cardiac microsomes [1] is reported as “stimulated this oxidation only at the highest levels tested; also recorded: stimulated NADPH oxidation only at the highest concentration tested, although this was not statistically significant”. Also, the “increase of DOX-dependent superoxide anion formation (in words)” value (from here on “increase”) in the series with human cardiac microsomes [2] (FIG. 6) was “did not increase; also recorded: did not afford any significant stimulation”. Besides, in the series on human cardiac cytosol [3], the “stimulation of conversion of DOX aglycone into DOXol aglycone (in words)” value (shortened to “stimulation of conversion … (in words)”) is on record as “failed to stimulate; also recorded: did not increase; also recorded: has not been found to stimulate”. Besides, the “stimulation of DOXol formation (in words)” value with human cardiac cytosol [4] is listed as “did not stimulate; also recorded: did not increase”.
On to `CC(=O)O[C@@]12CO[C@@H]1C[C@H](O)[C@@]1(C)C(=O)[C@H](O)C3=C(C)[C@@H](OC(=O)[C@H](O)[C@@H](NC(=O)OC(C)(C)C)c4ccccc4)C[C@@](O)([C@@H](OC(=O)c4ccccc4)[C@H]21)C3(C)C` [DCT, docetaxel], for which the “stimulation of NADPH oxidation” value with human cardiac microsomes [1] is on record as “able to stimulate”. Moreover, in the series with human cardiac microsomes [2] (FIG. 6), the “increase” value is given as “significant increase”. Further, in the series on human cardiac cytosol [3], the “stimulation of conversion … (in words)” value is “able to stimulate” and the “doxorubicinolone formation from doxorubicinone” value is reported as 1.3±0.2 nmol/mg prot./4h. In the series with human cardiac cytosol [4], the “stimulation of DOXol formation (in words)” value was “stimulate” and the “doxorubicinol formation from DOX” value is recorded as 1.2±0.2 nmol/mg prot./4h.
Take `COc1cccc2c1C(=O)c1c(O)c3c(c(O)c1C2=O)C[C@@](O)(C(=O)CO)C[C@@H]3O[C@H]1C[C@H](N)[C@H](O)[C@H](C)O1` [DOX, doxorubicin]: the “effect of DOX on superoxide anion formation (in words)” value in the series on human cardiac microsomes [2] (DOX without taxane, FIG. 6) is recorded as “enhances; also recorded: able to enhance”.
As to `CC(=O)O[C@H]1C(=O)[C@@]2(C)[C@H]([C@H](OC(=O)c3ccccc3)[C@]3(O)C[C@H](OC(=O)[C@H](O)[C@@H](NC(=O)c4ccccc4)c4ccccc4)C(C)=C1C3(C)C)[C@]1(OC(C)=O)CO[C@@H]1C[C@@H]2O` [PTX, paclitaxel], the “stimulation of NADPH oxidation” value in the series with human cardiac microsomes [1] is on record as “able to stimulate”. Moreover, in the series with human cardiac microsomes [2] (FIG. 6), the “increase” value is given as “significant increase”. The “generation of superoxide anion radicals in microsomal fractions” value in the series on human cardiac microsomes [2] (taxane 10 μM, DOX without taxane 1.6±0.1, n=4-10, P<0.05) turned out to be 2.2±0.2 nmol/mg prot./min. In the series on human cardiac cytosol [3], the “stimulation of conversion … (in words)” value was “able to stimulate” and the “doxorubicinolone formation from doxorubicinone” value is listed as 1.4±0.2 nmol/mg prot./4h. Moreover, in the series on human cardiac cytosol [4], the “stimulation of DOXol formation (in words)” value is reported as “stimulate” and the “doxorubicinol formation from DOX” value came to 1.1±0.2 nmol/mg prot./4h.
